Where two headings read alike, the source gives them in different places.

For this assay, the target named is T1, adenylate kinase (AK), wild-type (WT) (Escherichia coli, UniProt P69441).
T1 construct: gene adk; purified recombinant, details only in ESI
The assay can be described thus: microscale thermophoresis. In kind it is binding. Background: In MST a laser heats a spot of the sample, and binding alters the fluorescence response.

T1 sequence (P69441 whole entry): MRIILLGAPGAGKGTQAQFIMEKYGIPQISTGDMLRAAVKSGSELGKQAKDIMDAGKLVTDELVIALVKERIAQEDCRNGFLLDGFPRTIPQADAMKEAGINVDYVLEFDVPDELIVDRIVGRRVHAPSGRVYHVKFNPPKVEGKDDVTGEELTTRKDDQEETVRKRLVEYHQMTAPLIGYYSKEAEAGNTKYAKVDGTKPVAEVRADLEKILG

In the case of `Nc1ncnc2c1ncn2[C@@H]1O[C@H](COP(=O)(O)OP(=O)(O)OP(=O)(O)O)[C@@H](O)[C@H]1O` [ATP], the Kd (read-out: WT) was found to be 159 ± 17 µM. Consider `Nc1ncnc2c1ncn2[C@@H]1O[C@H](COP(=O)(O)O)[C@@H](O)[C@H]1O` [AMP], for which the Kd (read-out: Kd (AMP)) is 332 ± 40 µM.

The record behind these values is article PMC11770808, “Interplay between conformational dynamics and substrate binding regulates enzymatic activity: a single-molecule FRET study” (Chemical Science, 2025).
